Among the data in ChEMBL document CHEMBL1136181, “Differentially functionalized diamines as novel ligands for the NPY2 receptor” (Bioorg Med Chem Lett, 2003) are IC50 values, retold here.

In this assay the target is T1, Neuropeptide Y receptor type 2 (Homo sapiens, UniProt P49146).
T1 sequence (P49146 whole entry): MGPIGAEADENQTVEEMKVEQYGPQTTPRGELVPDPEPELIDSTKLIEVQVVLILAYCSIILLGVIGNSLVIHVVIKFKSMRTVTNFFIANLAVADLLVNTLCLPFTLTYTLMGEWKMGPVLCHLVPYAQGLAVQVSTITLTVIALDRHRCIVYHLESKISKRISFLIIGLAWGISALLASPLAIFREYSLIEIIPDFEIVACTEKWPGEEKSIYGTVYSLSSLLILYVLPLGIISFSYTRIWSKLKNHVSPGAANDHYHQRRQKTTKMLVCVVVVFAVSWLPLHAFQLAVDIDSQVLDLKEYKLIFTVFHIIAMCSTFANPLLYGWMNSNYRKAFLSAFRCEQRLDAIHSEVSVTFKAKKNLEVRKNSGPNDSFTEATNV
The experiment in a line: Binding affinity against SMS-KAN cell membranes endogenously expressing Neuropeptide Y receptor type 2 using [125I]PYY as radioligand.
As usually defined, the IC50 is the concentration at which inhibition is half-maximal. Lower therefore signals greater potency in that assay. Take `CNCCCN(C(=O)c1cc2ccccc2s1)c1ccccc1SCc1ccccc1`: the IC50 is more than 10 µM.
`CN(C)CCCN(C(=O)c1cc2ccccc2s1)c1ccccc1-c1ccccc1` yielded an IC50 of more than 10 µM.
The compound `CN(C)CCCN(C(=O)c1sc2ccccc2c1Cl)c1ccccc1SCc1ccccc1` yielded a half-maximal inhibitory concentration (IC50) of more than 10 µM.
As to `CN(C)CCN(C(=O)c1cc2ccccc2s1)c1ccccc1SCc1ccccc1`, the IC50 is more than 10 µM.
Compound `CN(C)CCCN(C(=O)/C=C/c1ccccc1)c1ccccc1SCc1ccccc1` returned an IC50 of 10 µM.
`CC(C(=O)N(CCCN(C)C)c1ccccc1SCc1ccccc1)c1ccccc1` (stereo not drawn) had an IC50 of 1 µM.
With `CN(C)CCCCN(C(=O)c1cc2ccccc2s1)c1ccccc1SCc1ccccc1` the figure was more than 10 µM.
As for `CN(C)CCCN(C(=O)c1cc2ccccc2s1)c1ccccc1NC(=O)c1ccccc1`, the IC50 was more than 10 µM.
With `CN(C)CCCN(C(=O)[C@@H]1C[C@H]1c1ccccc1)c1ccccc1SCc1ccccc1` the figure was 3.7 µM; with `CN(C)CCCN(C(=O)c1cc2ccccc2s1)c1ccccc1Cc1ccccc1`, more than 10 µM; with `CN(C)CCCN(C(=O)c1cc2ccccc2o1)c1ccccc1SCc1ccccc1`, more than 10 µM.
`CCCCc1ccccc1N(CCCN(C)C)C(=O)c1cc2ccccc2s1` registered an IC50 of 2.2 µM.
With `CN(C)CCCN(C(=O)c1cc2ccccc2s1)c1ccccc1CCc1ccccc1` the figure was more than 10 µM.
